Experimental data reported in US20040121316A1 (priority 2002, published 2004).
Where two headings read alike, the source gives them in different places.

Columns and labels:
[1] = tested on: recombinant HIV-1 30N 50S 82I 88D; test: microbe, parasite or virus in culture; assay type: cell-based; conditions: Human immunodeficiency virus 1, MT4, read-out: Cell-based assay (MT-4) EC50/nM 30N 82I 88D
[2] = tested on: WT HIV-1; test: microbe, parasite or virus in culture; assay type: cell-based; conditions: Human immunodeficiency virus 1, MT4, read-out: Cell-based assay (MT-4) EC50/nM WT
[3] = tested on: recombinant HIV-1 46I 47V 50V; test: microbe, parasite or virus in culture; assay type: cell-based; conditions: Human immunodeficiency virus 1, MT4, read-out: Cell-based assay (MT-4) EC50/nM 47I 50V
[4] = tested on: recombinant HIV-1 10I 84V 71V 73S 90M; test: microbe, parasite or virus in culture; assay type: cell-based; conditions: Human immunodeficiency virus 1, MT4, read-out: Cell-based assay (MT-4) EC50/nM 84V 90M
[5] = tested on: recombinant HIV-1 10I 48V 71V 82A 90M; test: microbe, parasite or virus in culture; assay type: cell-based; conditions: Human immunodeficiency virus 1, MT4, read-out: Cell-based assay (MT-4) EC50/nM 48V 82A 90M
[6] = tested on: recombinant HIV-1 48V 54V 71V 82S; test: microbe, parasite or virus in culture; assay type: cell-based; conditions: Human immunodeficiency virus 1, MT4, read-out: Cell-based assay (MT-4) EC50/nM 48V 54V 82S
[7] = tested on: recombinant HIV-1 10I 48V 54V 82A; test: microbe, parasite or virus in culture; assay type: cell-based; conditions: Human immunodeficiency virus 1, MT4, read-out: Cell-based assay (MT-4) EC50/nM 48V 54V 82A
[8] = tested on: HIV-1 30N82I88D; test: microbe, parasite or virus in culture; assay type: cell-based; conditions: Human immunodeficiency virus 1, read-out: Cell-based assay (MT-4) EC50/nM 30N82I88D
[9] = tested on: WT HIV-1; test: microbe, parasite or virus in culture; assay type: cell-based
[10] = tested on: HIV-1 84V90M; test: microbe, parasite or virus in culture; assay type: cell-based; conditions: Human immunodeficiency virus 1, read-out: Cell-based assay (MT-4) EC50/nM 84V90M
[11] = target: 84V90M HIV protease (Human immunodeficiency virus type 1 group M subtype B, UniProt P04585, I572V/L578M); test: biochemical; set-up: species or system HIV-1
[12] = tested on: HIV-1 48V54V82A; test: microbe, parasite or virus in culture; assay type: cell-based
[13] = tested on: HIV-1 46I50V; test: microbe, parasite or virus in culture; assay type: cell-based
[14] = tested on: recombinant HIV-1 strains with resistance mutations in the protease gene; test: Cross-Resistance Profile Assay, whole panel; assay type: cell-based; conditions: {}
[15] = tested on: wild-type HIV-1 strain IIIB; test: microbe, parasite or virus in culture; assay type: cell-based; set-up: scale not given here
[16] = target: T1, recombinant HIV-1 protease (Human immunodeficiency virus type 1 group M subtype B, UniProt P04585); test: biochemical
T1 construct: Enzyme: recombinant HIV-1 protease expressed in E.Coli; purchased Bachem California, Inc. H-9040; host or cells: E. coli

[17] = tested on: mutant HIV-1 I84V/L90M; test: Resistance Evaluation, I84V/L90M fold change; assay type: cell-based; set-up: scale not given here
[18] = Human immunodeficiency virus 1, read-out: Cell-based assay (MT-4) EC50/nM WT
[19] = Human immunodeficiency virus 1, read-out: Cell-based assay (MT-4) EC50/nM 48V54V82A
[20] = Human immunodeficiency virus 1, read-out: Cell-based assay (MT-4) EC50/nM 46I50V
[21] = Human immunodeficiency virus 1, IIIB
[22] = EC50 of mutant I84V/L90M relative to wild type, class symbols

CCOP(=O)(COc1ccc(CC2C(O)C(O)C(Cc3ccc(OC)cc3)N(Cc3ccc(O)cc3)C(=O)N2Cc2ccc(O)cc2)cc1)OCC (stereo not shown) [OCH3/Ph-pOH/OCH2PO3Et2]
EC50 [1]: 25 nM
EC50 [2]: 30 nM
EC50 [3]: 90 nM
EC50 [4]: 148 nM
EC50 [5]: 54 nM
EC50 [6]: 129 nM
EC50 [7]: 70 nM

CCOP(=O)(COc1ccc(CC2C(O)C(O)C(Cc3ccc(O)cc3)N(Cc3ccc(O)cc3)C(=O)N2Cc2ccc(O)cc2)cc1)OCC (stereo not shown) [OH, Ph-pOH, OCH2PO3Et2]
EC50 [8]: 211 nM
EC50 [9, 18]: 285 nM
EC50 [10]: 1910 nM
IC50 [11]: 18 nM
EC50 [12, 19]: 986 nM
EC50 [13, 20]: 1110 nM

CC(C)c1nc(CN(C)C(=O)N[C@H](C(=O)N[C@@H](Cc2ccccc2)C[C@H](O)[C@H](Cc2ccccc2)NC(=O)OCc2cncs2)C(C)C)cs1 [Ritonavir, reference compound]
Total No. of Resistant Viruses [14]: 10
EC50 [15, 21]: < 50 nM

CC(C)(C)NC(=O)[C@@H]1C[C@@H]2CCCC[C@@H]2CN1C[C@@H](O)[C@H](Cc1ccccc1)NC(=O)[C@H](CC(N)=O)NC(=O)c1ccc2ccccc2n1 [Saquinavir, reference compound]
Total No. of Resistant Viruses [14]: 4
EC50 [15, 21]: < 50 nM

CCCCOC(=O)CNP(=O)(COc1ccc(CC(NC(=O)OC2COC3OCCC23)C(O)CN(CC(C)C)S(=O)(=O)c2ccc(OC)cc2)cc1)Oc1ccccc1 (stereo not shown) [drawing 614 R1=OPh R2=Gly-Bu]
EC50 [15, 21]: 50 to 500 nM
Ki ([16]; Ki, class symbols, Table 10): 0.01 to 0.1 nM
I84V/L90M fold change [17, 22]: − (≦3)

CCOC(=O)COP(=O)(COc1ccc(CC(NC(=O)OC2COC3OCCC23)C(O)CN(CC(C)C)S(=O)(=O)c2ccc(OC)cc2)cc1)Oc1ccccc1 (stereo not shown) [drawing 615 R1=OPh R2=Glc-Et]
EC50 [15, 21]: 50 to 500 nM
Ki ([16]; Ki, class symbols, Table 10): < 0.01 nM
I84V/L90M fold change [17, 22]: − (≦3)

COc1ccc(S(=O)(=O)N(CC(C)C)CC(O)C(CC2=CCN(CCP(=O)(OCc3ccccc3)OCc3ccccc3)CC2)NC(=O)OC2COC3OCCC23)cc1 (stereo not shown) [drawing 673]
EC50 (nM) [15]: + +
Ki ([16]; read-out: Ki): > 1 nM
I84V/L90M fold change ([17]; mutant I84V/L90M vs wild type): − (≦3)

CC(C)CN(CC(O)C(Cc1ccc(OCP(=O)(NC(C)C(=O)OC(C)C)Oc2ccccc2)cc1)NC(=O)OC1CCOC1)S(=O)(=O)c1ccc(N)cc1 (stereo not shown) [drawing 697 R1=OPh R2=Ala-iPr]
EC50 ([15]; class symbols, Table 10): + +
Ki ([16]; Ki, class symbols, Table 10): 0.1 to 1 nM
Ki ([16]; class symbols, Table 10): + +
I84V/L90M fold change [17, 22]: + (>3 to ≦10)

CCOP(=O)(CCCNC(=O)c1cccc(CN2C(=O)N(Cc3ccc4[nH]nc(N)c4c3)C(Cc3ccccc3)C(O)C(O)C2Cc2ccccc2)c1)OCC (stereo not shown) [drawing 809]
EC50 [8]: 666 nM
EC50 [9, 18]: 188 nM
EC50 [10]: 476 nM
IC50 [11]: 10 nM
EC50 [12, 19]: 240 nM
EC50 [13, 20]: 319 nM

CCOP(=O)(CCCNC(=O)c1cccc(CN2C(=O)N(Cc3ccc4[nH]nc(N)c4c3)C(Cc3ccccc3)C(O)C(O)C2Cc2ccccc2)c1)OCC (stereo not shown) [drawing 820]
IC50 ([11]; read-out: 84V90M IC50/nM, Enzymatic assay, 84V90M): 10 nM

Nc1n[nH]c2ccc(CN3C(=O)N(Cc4cccc(OCc5ccccc5)c4)C(Cc4ccccc4)C(O)C(O)C3Cc3ccccc3)cc12 (stereo not shown) [m-OBn]
EC50 ([9]; read-out: Cell-based assay (MT-4) EC50/nM WT): 218 nM
EC50 ([12]; MT-4, 48V54V82A, read-out: Cell-based assay (MT-4) EC50/nM 48V54V82A): 709 nM
EC50 ([13]; MT-4, 46I50V, read-out: Cell-based assay (MT-4) EC50/nM 46I50V): 601 nM

O=C1N(Cc2ccccc2)[C@H](Cc2ccccc2)[C@H](O)[C@@H](O)[C@@H](Cc2ccccc2)N1Cc1ccc2[nH]ncc2c1 [reference compound]
EC50 [8]: 281 nM
EC50 [9, 18]: 193 nM
EC50 [10]: 2310 nM
IC50 [11]: 43.3 nM
EC50 [12, 19]: 705 nM
EC50 [13, 20]: 772 nM
